# Like-named read-outs stand apart in the source and are kept apart here.
# What was measured:
# Huh-7 xenografts = test: CIVO intratumoral microinjection, Huh-7 xenografts; format: in vivo; settings: Huh-7 liver cancer model
# Description: FIG. 6 depicts the CIVO injection array.
# CC3 is not elevated over background levels at any injection site.
# Calu-1 = test: 72-hour CellTiter-Glo 2.0 growth inhibition screen (single agent, 9x9 combination dose matrix); format: cell-based;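 on Best CI Level: inhibition effect level at which the best CI was calculated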
# NCI-H2030 = test: as above; format: cell-based; settings: for Emax: NCI-H2030;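 on Best CI Level: inhibition effect level at which the best CI was calculated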
# NCI-H1373 = test: as above; format: cell-based; settings: for Emax: NCI-H1373;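 on Best CI Level: inhibition effect level at which the best CI was calculated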
# NCI-H1792 = test: as above; format: cell-based;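 on Best CI Level: inhibition effect level at which the best CI was calculated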
# MIA PaCa-2 = test: as above; format: cell-based
# [1] = Calu-1 (KRAS G12C), enhancer + MEI-522 (Voruciclib), 72 h;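 on Best CI Level: inhibition effect level at which the best CI was calculated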
# [2] = Calu-1, Lung, Additional Single Agent Responses (inhibition, % I), 72 h
# [3] = Calu-1, Lung, growth inhibition (GI), AUC, single agent, 72 h
# [4] = enhancer combined with MEI-522 (Voruciclib), Calu-1 (Lung), 72 hours, inhibition data
# [5] = NCl-H2030 (KRAS G12C), enhancer + MEI-522 (Voruciclib), 72 h
# [6] = NCl-H2030, Lung, Additional Single Agent Responses (inhibition, % I), 72 h
# [7] = NCl-H2030, Lung, growth inhibition (GI), AUC, single agent, 72 h
# [8] = enhancer combined with MEI-522 (Voruciclib), NCl-H2030 (Lung), 72 hours, inhibition data
# [9] = NCl-H1373 (KRAS G12C), enhancer + MEI-522 (Voruciclib), 72 h
# [10] = NCl-H1373, Lung, Additional Single Agent Responses (inhibition, % I), 72 h
# [11] = NCl-H1373, Lung, growth inhibition (GI), AUC, single agent, 72 h
# [12] = enhancer combined with MEI-522 (Voruciclib), NCl-H1373 (Lung), 72 hours, inhibition data
# [13] = NCl-H1792 (KRAS G12C), enhancer + MEI-522 (Voruciclib), 72 h
# [14] = NCl-H1792, Lung, Additional Single Agent Responses (inhibition, % I), 72 h
# [15] = NCl-H1792, Lung, growth inhibition (GI), AUC, single agent, 72 h
# [16] = enhancer combined with MEI-522 (Voruciclib), NCl-H1792 (Lung), 72 hours, inhibition data
# [17] = Homo sapiens, MIA PaCa-2, Pancreas, Additional Single Agent Responses (inhibition, % I), 72 h
# [18] = MIA PaCa-2 (KRAS G12C), enhancer + MEI-522 (Voruciclib), 72 h;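 on Best CI Level: inhibition effect level at which the best CI was calculated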
# [19] = MIA PaCa-2, Pancreas, Additional Single Agent Responses (inhibition, % I), 72 h
# [20] = MIA PaCa-2, Pancreas, growth inhibition (GI), AUC, single agent, 72 h
# [21] = enhancer combined with MEI-522 (Voruciclib), MIA PaCa-2 (Pancreas), 72 hours, inhibition data
# [22] = Calu-1, Lung, growth inhibition (GI) curve, single agent, 72 h
# [23] = NCl-H2030, Lung, growth inhibition (GI) curve, single agent, 72 h
# [24] = NCl-H1373, Lung, growth inhibition (GI) curve, single agent, 72 h
# [25] = NCl-H1792, Lung, growth inhibition (GI) curve, single agent, 72 h
# [26] = MIA PaCa-2, Pancreas, growth inhibition (GI) curve, single agent, 72 h
smiles,measurement,setting,value
CN1CCN(c2ccc(OC(F)(F)F)c(Nc3ncc4c(n3)-c3c(c(C(N)=O)nn3CCO)CC4)c2)CC1 [Onvansertib],apoptotic cells (CC3),Huh-7 xenografts,do not result in an increase in apoptotic cells
C=CC(=O)N1CCN(c2nc(=O)n(-c3c(C)ccnc3C(C)C)c3nc(-c4c(O)cccc4F)c(F)cc23)[C@@H](C)C1 [AMG510],Best CI,Calu-1; [1],0.80
same,Bliss Volume,Calu-1; [1],2.90
same,HSA volume,Calu-1; [1],2.88
same,Loewe Volume,Calu-1; [1],2.66
same,Synergy Score,Calu-1; [1],4.52
same,Response Area,Calu-1; [2],1.72
same,Response Area,Calu-1; [3],2.29
same,EC50,"Calu-1; Homo sapiens, Calu-1, 72 h, Calu-1, Lung, Additional Single Agent Responses (inhibition, % I), 72 h",2.8 nM
same,EC50,"Calu-1; Homo sapiens, Calu-1, 72 h, Calu-1, Lung, growth inhibition (GI) curve, single agent, 72 h",2.9 nM
same,Emax,"Calu-1; Homo sapiens, Calu-1, Lung, Additional Single Agent Responses, 72 h, read-out: Max Response (% I)",37%
same,Emax,"Calu-1; Homo sapiens, Calu-1, Lung, growth inhibition (GI), single agent, 72 h, read-out: Max Response (% GI)",48%
same,Best CI,Calu-1; [4],0.72
same,Best CI Level,Calu-1; [4],55
same,Bliss Volume,Calu-1; [4],−0.15
same,HSA volume,Calu-1; [4],1.55
same,Loewe Volume,Calu-1; [4],1.28
same,Synergy Score,Calu-1; [4],1.42
same,EC50,"NCI-H2030; Homo sapiens, NCI-H2030, 72 h, NCl-H2030, Lung, Additional Single Agent Responses (inhibition, % I), 72 h",4.3 nM
same,EC50,"NCI-H2030; Homo sapiens, NCI-H2030, 72 h, NCl-H2030, Lung, growth inhibition (GI) curve, single agent, 72 h",4.4 nM
same,Emax,"NCI-H2030; Homo sapiens, NCl-H2030, Lung, Additional Single Agent Responses, 72 h, read-out: Max Response (% I)",38%
same,Emax,"NCI-H2030; Homo sapiens, NCl-H2030, Lung, growth inhibition (GI), single agent, 72 h, read-out: Max Response (% GI)",47%
same,Best CI,NCI-H2030; [5],0.47
same,Bliss Volume,NCI-H2030; [5],6.35
same,HSA volume,NCI-H2030; [5],4.90
same,Loewe Volume,NCI-H2030; [5],4.51
same,Synergy Score,NCI-H2030; [5],5.13
same,Response Area,NCI-H2030; [6],1.65
same,Response Area,NCI-H2030; [7],2.05
same,Best CI,NCI-H2030; [8],0.70
same,Best CI Level,NCI-H2030; [8],50
same,Bliss Volume,NCI-H2030; [8],1.77
same,HSA volume,NCI-H2030; [8],3.51
same,Loewe Volume,NCI-H2030; [8],3.26
same,Synergy Score,NCI-H2030; [8],2.04
same,EC50,"NCI-H1373; Homo sapiens, NCI-H1373, 72 h, NCl-H1373, Lung, Additional Single Agent Responses (inhibition, % I), 72 h",2.5 nM
same,EC50,"NCI-H1373; Homo sapiens, NCI-H1373, 72 h, NCl-H1373, Lung, growth inhibition (GI) curve, single agent, 72 h",2.1 nM
same,Emax,"NCI-H1373; Homo sapiens, NCl-H1373, Lung, Additional Single Agent Responses, 72 h, read-out: Max Response (% I)",49%
same,Emax,"NCI-H1373; Homo sapiens, NCl-H1373, Lung, growth inhibition (GI), single agent, 72 h, read-out: Max Response (% GI)",65%
same,Best CI,NCI-H1373; [9],0.28
same,Bliss Volume,NCI-H1373; [9],2.91
same,HSA volume,NCI-H1373; [9],1.67
same,Loewe Volume,NCI-H1373; [9],2.62
same,Synergy Score,NCI-H1373; [9],4.10
same,Response Area,NCI-H1373; [10],2.05
same,Response Area,NCI-H1373; [11],2.56
same,Best CI,NCI-H1373; [12],0.93
same,Best CI Level,NCI-H1373; [12],20
same,Bliss Volume,NCI-H1373; [12],−1.68
same,HSA volume,NCI-H1373; [12],0.90
same,Loewe Volume,NCI-H1373; [12],0.62
same,Synergy Score,NCI-H1373; [12],1.25
same,EC50,"NCI-H1792; Homo sapiens, NCI-H1792, NCl-H1792, Lung, Additional Single Agent Responses (inhibition, % I), 72 h",4.2 nM
same,Emax,"NCI-H1792; Homo sapiens, NCI-H1792, NCl-H1792, Lung, Additional Single Agent Responses, 72 h, read-out: Max Response (% I)",29%
same,Emax,"NCI-H1792; Homo sapiens, NCI-H1792, NCl-H1792, Lung, growth inhibition (GI), single agent, 72 h, read-out: Max Response (% GI)",37%
same,Best CI,NCI-H1792; [13],0.36
same,Bliss Volume,NCI-H1792; [13],5.76
same,HSA volume,NCI-H1792; [13],3.59
same,Loewe Volume,NCI-H1792; [13],4.64
same,Synergy Score,NCI-H1792; [13],3.62
same,Response Area,NCI-H1792; [14],1.05
same,Response Area,NCI-H1792; [15],1.34
same,Best CI,NCI-H1792; [16],0.46
same,Bliss Volume,NCI-H1792; [16],2.25
same,HSA volume,NCI-H1792; [16],2.86
same,Loewe Volume,NCI-H1792; [16],3.31
same,Synergy Score,NCI-H1792; [16],1.87
same,Best CI Level,"NCI-H1792; enhancer combined with MEI-522 (Voruciclib), NCl-H1792 (Lung), 72 hours, inhibition data, unit assumed",35%
same,EC50,MIA PaCa-2; [17],5.7 nM
same,IC50,MIA PaCa-2; [17],14.7 nM
same,Emax,"MIA PaCa-2; Homo sapiens, MIA PaCa-2, Pancreas, Additional Single Agent Responses, 72 h, read-out: Max Response (% I)",63%
same,GI50,"MIA PaCa-2; Homo sapiens, MIA PaCa-2, Pancreas, growth inhibition (GI) curve, single agent, 72 h",9.2 nM
same,Emax,"MIA PaCa-2; Homo sapiens, MIA PaCa-2, Pancreas, growth inhibition (GI), single agent, 72 h, read-out: Max Response (% GI)",77%
same,Best CI,MIA PaCa-2; [18],0.65
same,Bliss Volume,MIA PaCa-2; [18],3.75
same,HSA volume,MIA PaCa-2; [18],5.03
same,Loewe Volume,MIA PaCa-2; [18],4.68
same,Synergy Score,MIA PaCa-2; [18],6.04
same,Response Area,MIA PaCa-2; [19],3.12
same,Response Area,MIA PaCa-2; [20],3.77
same,Best CI,MIA PaCa-2; [21],0.60
same,Best CI Level,MIA PaCa-2; [21],75
same,Bliss Volume,MIA PaCa-2; [21],0.19
same,HSA volume,MIA PaCa-2; [21],2.76
same,Loewe Volume,MIA PaCa-2; [21],2.52
same,Synergy Score,MIA PaCa-2; [21],2.16
CN1CC[C@@H](c2c(O)cc(O)c3c(=O)cc(-c4ccc(C(F)(F)F)cc4Cl)oc23)[C@@H]1CO [MEI-522(Voruciclib)],EC50,Calu-1; [2],1860 nM
same,IC50,Calu-1; [2],1980 nM
same,Response Area,Calu-1; [2],2.48
same,Max Response (% I),"Calu-1; Calu-1, Lung, Additional Single Agent Responses, 72 h",90 % I
same,EC50,Calu-1; [22],2070 nM
same,GI50,Calu-1; [22],1680 nM
same,Response Area,Calu-1; [3],4.35
same,Max Response (% GI),"Calu-1; Calu-1, Lung, growth inhibition (GI), single agent, 72 h",159 % GI
same,EC50,NCI-H2030; [6],1050 nM
same,IC50,NCI-H2030; [6],1060 nM
same,Response Area,NCI-H2030; [6],2.92
same,Max Response (% I),"NCI-H2030; NCl-H2030, Lung, Additional Single Agent Responses, 72 h",98 % I
same,EC50,NCI-H2030; [23],1680 nM
same,GI50,NCI-H2030; [23],1130 nM
same,Response Area,NCI-H2030; [7],5.28
same,Max Response (% GI),"NCI-H2030; NCl-H2030, Lung, growth inhibition (GI), single agent, 72 h",188 % GI
same,EC50,NCI-H1373; [10],1030 nM
same,IC50,NCI-H1373; [10],1230 nM
same,Response Area,NCI-H1373; [10],2.58
same,Max Response (% I),"NCI-H1373; NCl-H1373, Lung, Additional Single Agent Responses, 72 h",86 % I
same,EC50,NCI-H1373; [24],1390 nM
same,GI50,NCI-H1373; [24],972 nM
same,Response Area,NCI-H1373; [11],4.24
same,Max Response (% GI),"NCI-H1373; NCl-H1373, Lung, growth inhibition (GI), single agent, 72 h",147 % GI
same,EC50,NCI-H1792; [14],1350 nM
same,IC50,NCI-H1792; [14],1360 nM
same,Response Area,NCI-H1792; [14],2.83
same,Max Response (% I),"NCI-H1792; NCl-H1792, Lung, Additional Single Agent Responses, 72 h",98 % I
same,EC50,NCI-H1792; [25],1910 nM
same,GI50,NCI-H1792; [25],1440 nM
same,Response Area,NCI-H1792; [15],5.24
same,Max Response (% GI),"NCI-H1792; NCl-H1792, Lung, growth inhibition (GI), single agent, 72 h",192 % GI
same,EC50,MIA PaCa-2; [19],894 nM
same,IC50,MIA PaCa-2; [19],1070 nM
same,Response Area,MIA PaCa-2; [19],2.64
same,Max Response (% I),"MIA PaCa-2; MIA PaCa-2, Pancreas, Additional Single Agent Responses, 72 h",85 % I
same,EC50,MIA PaCa-2; [26],1130 nM
same,GI50,MIA PaCa-2; [26],868 nM
same,Response Area,MIA PaCa-2; [20],3.63
same,Max Response (% GI),"MIA PaCa-2; MIA PaCa-2, Pancreas, growth inhibition (GI), single agent, 72 h",116 % GI
